# Measured values taken from patent US10028906B2, “Method and kit for treating a solid tumor and associated desmoplasia” (Rosalind Franklin Univ. of Medicine and Science, priority 2016, dated 2018).
# “Also recorded” adds a separate entry of the source. Where no end group is shown, it is not given here.
# B1: full-length CCN3 molecule: full-length CCN3 protein of U.S. Pat. No. 7,780,949 (protein, UniProt P48745 1-357, looked up)
# chain: MQSVQSTSFCLRKQCLCLTFLLLHLLGQVAATQRCPPQCPGRCPATPPTCAPGVRAVLDGCSCCLVCARQRGESCSDLEPCDESSGLYCDRSADPSNQTGICTAVEGDNCVFDGVIYRSGEKFQPSCKFQCTCRDGQIGCVPRCQLDVLLPEPNCPAPRKVEVPGECCEKWICGPDEEDSLGGLTLAAYRPEATLGVEVSDSSVNCIEQTTEWTACSKSCGMGFSTRVTNRNRQCEMLKQTRLCMVRPCEQEPEQPTDKKGKKCLRTKKSLKAIHLQFKNCTSLHTYKPRFCGVCSDGRCCTPHNTKTIQAEFQCSPGQIVKKPVMVIGTCTCHTNCPKNNEAFLQELELKTTRGKM
# modifications: full-length
# Assays:
# [1] = in vivo toxicity study (body weight change); conditions: tumor-bearing mice
# Description: (§1) FIGS. 6-24 show the experimental protocol and results of in vivo studies of orthotopic tumors derived from the Murine FC1199 cell line and implanted into Kras and P53 mice.
# Ascites formation is a marker of late stage pancreatic cancer and can predict mortality.
# FC1199 orthotopic tumors [2] = test: in vivo FC1199 orthotopic tumors, tumor burden as pancreas weight; parameters: species or system mice; conditions: for tumor burden / tumor growth as measured by pancreas weight: orthotopic FC1199 tumors in mice, no day stated; for potentiation of the therapeutic effects of gemcitabine / chemotherapeutic agent in vivo: combination, pancreas weight, FIGS. 21 and 22
# Description: FIGS. 1-24 show the in vitro and in vivo studies of CCNp37 (SEQ ID NO. 37) (Peptide 2 in the FIGS.) and CCNp38 (SEQ ID NO. 38) (Peptide 1 in the FIGS.) alone or in combination with a chemotherapeutic agent gemcitabine in treating pancreatic cells or orthotopic tumors implanted in the pancreas of mice. Gemcitibine is an example of an approved small molecule chemotherapeutic agent that is used in the clinic for pancreatic cancer, other suitable chemotherapeutic or immunotherapeutic agents are, for example, Abraxane (Paclitaxel Albumin-stabilized Nanoparticle Formulation), Afinitor (Everolimus), Erlotinib Hydrochloride, Everolimus, 5-FU (Fluorouracil Injection), Fluorouracil Injection, Gemcitabine Hydrochloride, Gemzar (Gemcitabine Hydrochloride), Irinotecan Hydrochloride Liposome, Mitomycin C, Mitozytrex (Mitomycin C), Mutamycin (Mitomycin C), Onivyde (Irinotecan Hydrochloride Liposome), Paclitaxel Albumin-stabilized Nanoparticle Formulation, Sunitinib Malate, Sutent (Sunitinib Malate), and Tarceva (Erlotinib Hydrochloride) and combinations of the same. Other suitable drug combinations for treating pancreatic cancer includes: FOLFIRINOX, GEMCITABINE-CISPLATIN, GEMCITABINE-OXALIPLATIN, and OFF. Suitable drugs for treatment for gastroenteropancreatic neuroendocrine tumors: Lanreotide Acetate, and Somatuline Depot (Lanreotide Acetate).
# as §1
# FIGS. 18 and 19 show the protocol of a second in vivo experiment (Experiment 2).
# (§2) FIGS. 21-24 show the protocol for the second invo experiment on the effectiveness of administering Peptides 1 and 2±gemcitabine. […] In FIG. 21, peptide 1 or 2 was delivered on day 11 of the study after tumor implantation and gemcitabine was delivered on day 14. […] Ascites formation is a marker of late stage pancreatic cancer and can predict mortality.
# [3] = system: MIA PaCa2-Luc cancer cells; test: in vitro proliferation of MIA PaCa2-Luc cancer cells; assay type: cell-based, Human; conditions: FIG. 2
# Description: (§3) Peptides were examined in two different pancreatic cancer cell lines to determine consistency of response. We sought to determine if there was efficacy of the peptide alone, or in combination with conventional chemotherapy, i.e., does it potentiate the effects of current therapy. The two cell lines used were Human MIA PaCa2-Luc, and Murine FC1199 (derived from tumors in KPC GEM mice).
# (§4) While not wishing to be bound to any particular theory, it was hypothesized that the peptides might still be effective in blocking the formation and/or removing the formation of desmoplasia or tumor stroma associated with a solid tumor alone acting to prevent and or to treat cancer and as well to providing greater access of the chemotherapeutic or immunotherapeutic agent to the tumor. […] It is believed that many large, and smaller, molecule immunotherapeutic agents will not react with Peptides 1 and 2 and they may also be used in combination with one another.
# (§5) The in vitro studies used human MIA PaCa2-Luc, and Murine FC1199 cell lines.
# FC1199 orthotopic tumors [4] = test: in vivo FC1199 orthotopic tumors, vessel number/vessel density (angiogenesis); parameters: species or system mice; conditions: no day stated
# Description: as §4
# FC1199 orthotopic tumors [5] = test: in vivo FC1199 orthotopic tumors, matrix deposition (desmoplasia); parameters: species or system mice; conditions: no day stated
# Description: as §4, §1
# FC1199 cells = test: in vitro FC1199 cell growth, gemcitabine repression; assay type: cell-based, Murine; conditions: FIGS. 3 and 5
# Description: as §3, §5
# FC1199 orthotopic tumors [6] = test: in vivo FC1199 orthotopic tumors, ascites production; parameters: species or system mice
# Description: as §2
# [7] = system: Human MIA PaCa2-Luc, and Murine FC1199 pancreatic cancer cell lines; test: in vitro cancer cell growth in two pancreatic cancer cell lines; assay type: cell-based; conditions: FIGS. 2-5
# Description: as §3, §5
# renal fibrosis = conditions: disclosed in U.S. Pat. No. 7,780,949; cited from earlier work
molecule,measurement,setting,value
"FSGVSSDGRSSTPH [Peptide 2, FSGVSSDGRSSTPH]",toxicity (body weight change),[1],non-toxic
"Nc1ccn([C@@H]2O[C@H](CO)[C@@H](O)C2(F)F)c(=O)n1 [Gemcitabine, gemcitabine, reference compound]",tumor burden / tumor growth as measured by pancreas weight,FC1199 orthotopic tumors [2],produces a dose-dependent response to tumor burden
"SDRSADPNNQTGIS [Peptide 1, Mouse analog with native cysteines replaced with serines]",proliferation of MIA PaCa2-Luc cancer cells,[3],do not reduce the proliferation of MIA PaCa2-Luc cancer cells
same,angiogenesis as measured by vessel number/vessel density,FC1199 orthotopic tumors [4],reducing angiogenesis; also recorded: a reduction in angiogenesis as measured by vessel number/vessel density
same,desmoplasia as measured by matrix deposition area,FC1199 orthotopic tumors [5],effective in treating desmoplasia or stroma associated with a solid tumor; also recorded: a reduction in desmoplasia as measured by matrix deposition area
same,"tumor burden in terms of pancreas weight, day 14","FC1199 orthotopic tumors [2]; Experiment 2, day 14, vs control",effective in reducing the tumor burden in terms of reduced pancreas weight when compared to a control
same,"tumor burden in terms of pancreas weight, day 25","FC1199 orthotopic tumors [2]; Experiment 2, day 25, vs control",effective in reducing the tumor burden in terms of reduced pancreas weight when compared to a control
same,potentiation of the therapeutic effects of gemcitabine / chemotherapeutic agent in vivo,FC1199 orthotopic tumors [2],can potentiate the therapeutic effects of the standard chemotherapeutic agent gemcitabine
same,potentiation of the therapeutic effects of gemcitabine / chemotherapeutic agent in vivo,FC1199 orthotopic tumors [2]; listed as CCNp38,treat a solid tumor more effectively than the chemotherapeutic or immunotherapeutic agents alone
same,tumor burden / tumor growth as measured by pancreas weight,FC1199 orthotopic tumors [2],effective in reducing the growth of orthotopic FC1199 tumor burden as measured by pancreas weight; also recorded: effective in reducing tumor growth and weight
same,expansion and spread of the tumor and cancer cells,FC1199 orthotopic tumors [2]; overview FIG. 1,blocking the expansion and spread of the tumor and cancer cells
same,potentiation of gemcitabine repression of FC1199 cell growth,FC1199 cells,did not potentiate the effects of gemcitabine in repressing of FC1199 cell growth
same,number of mice with ascites / ascites formation,"FC1199 orthotopic tumors [6]; day 25, vs control",reducing the formation of ascites associated with a solid tumor; also recorded: effective in reducing the number of mice with ascites
same,inflammation,FC1199 orthotopic tumors [6]; inferred from ascites data,reduce inflammation
same,cancer growth / cell proliferation in vitro,[7]; agent alone,did not slow cancer growth in vitro; also recorded: do not have an effect in cell proliferation
same,potentiation of the effects of gemcitabine in reducing cancer growth in vitro,[7]; combination with gemcitabine,did little or nothing to potentiate the effects of the chemotherapeutic agent gemcitabine in reducing cancer growth in vitro
B1,fibrosis in an in vitro model of renal fibrosis,renal fibrosis,blocks fibrosis
